Molecules are shown by their SMILES.

Assay [1] deals with T1, 6His-Tev-LRRK2 (1326-2527) (Homo sapiens, UniProt Q5S007).
T1 construct: A LRRK2 cDNA encoding residues 1326-2527 was received from Dundee University; made in house; host or cells: Spodoptera frugiperda (Sf9) insect cells, baculovirus
T1 sequence (Q5S007 1326-2527): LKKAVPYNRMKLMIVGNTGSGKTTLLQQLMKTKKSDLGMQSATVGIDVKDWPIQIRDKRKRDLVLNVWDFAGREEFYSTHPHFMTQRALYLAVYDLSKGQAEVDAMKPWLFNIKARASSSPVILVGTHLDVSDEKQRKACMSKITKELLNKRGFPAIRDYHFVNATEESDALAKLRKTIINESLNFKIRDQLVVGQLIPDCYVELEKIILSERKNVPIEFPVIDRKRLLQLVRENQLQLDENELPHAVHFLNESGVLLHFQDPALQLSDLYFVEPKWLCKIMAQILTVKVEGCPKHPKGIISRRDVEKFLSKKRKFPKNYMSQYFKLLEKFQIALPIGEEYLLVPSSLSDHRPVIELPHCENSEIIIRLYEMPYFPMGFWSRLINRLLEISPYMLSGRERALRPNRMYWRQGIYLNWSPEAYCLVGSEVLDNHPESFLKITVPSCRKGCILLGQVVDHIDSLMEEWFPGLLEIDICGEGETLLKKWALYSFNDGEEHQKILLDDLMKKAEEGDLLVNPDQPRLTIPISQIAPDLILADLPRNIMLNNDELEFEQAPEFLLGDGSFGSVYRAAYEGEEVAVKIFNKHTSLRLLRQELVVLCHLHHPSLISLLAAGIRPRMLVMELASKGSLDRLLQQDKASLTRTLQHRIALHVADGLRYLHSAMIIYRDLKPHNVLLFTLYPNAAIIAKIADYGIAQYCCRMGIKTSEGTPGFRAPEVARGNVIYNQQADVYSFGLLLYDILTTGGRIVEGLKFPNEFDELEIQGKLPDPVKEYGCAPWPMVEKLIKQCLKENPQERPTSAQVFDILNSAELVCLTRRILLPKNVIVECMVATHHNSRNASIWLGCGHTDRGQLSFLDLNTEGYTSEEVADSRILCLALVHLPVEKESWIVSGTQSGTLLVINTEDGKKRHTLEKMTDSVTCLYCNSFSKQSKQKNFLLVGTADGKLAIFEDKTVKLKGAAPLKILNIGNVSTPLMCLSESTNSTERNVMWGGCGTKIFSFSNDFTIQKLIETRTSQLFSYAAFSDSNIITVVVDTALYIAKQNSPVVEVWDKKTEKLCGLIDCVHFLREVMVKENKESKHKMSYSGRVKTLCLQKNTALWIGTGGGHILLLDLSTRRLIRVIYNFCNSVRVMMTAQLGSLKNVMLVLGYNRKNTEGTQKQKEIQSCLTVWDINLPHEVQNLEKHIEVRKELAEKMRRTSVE
The experiment in a line: LRRK2 peptide substrate assay. The settings on record: Biotin-LRRKtide peptide substrate, ATP at Km. In kind it is biochemical. The method, then:
Compounds of formula (I) may be tested for in vitro kinase activity in accordance with the following assays, using the non natural, in vitro, substrates moesin and the Longer Biotin-LRRKtide. Moesin and a shorter version of the peptide were identified as substrates in Jaleel et al, (2007, Biochem J, 405: 307-317).
LRRK2 Peptide Substrate Assay
a) 100 nl of a 1:4 serial dilution of test compound with a top final assay concentration of 30 μM is added to certain wells in a low volume 384 well black plate. 100 nl of DMSO is used in certain wells as controls.
b) 3 μl enzyme solution (80 nM purified recombinant 6His-Tev-LRRK2 (1326-2527) in assay buffer: 50 mM Hepes (pH 7.2), 10 mM MgCl2, 150 mM NaCl, 5% glycerol, 0.0025% triton X-100 and 1 mM DTT) is added to certain wells. […] Plates are then incubated for a further 1-2 hours at room temperature (incubation time varies depending upon rate and linearity of reaction with differing enzyme batches). d) 6 μl detection solution (50 nM Streptavidin SureLight® APC (PerkinElmer), 4 nM Eu-W1024 labelled anti-rabbit IgG antibody (PerkinElmer), 1:500 dilution (dilution determined on a batch to batch basis) of Phospho-Ezrin (Thr567)/Radixin (Thr564)/Moesin (Thr558) Polyclonal Antibody (New England Biolabs) and 60 mM EDTA in buffer: 40 mM Hepes (pH 7.2), 150 mM NaCl, 0.03% BSA) is added to each well. Plates are then incubated for a further 2 hours at room temperature before reading on a suitable plate reader (Excitation 330 nm, emission 620 nm (Eu) and 665 nm (APC)). Data is analysed using ActivityBase software (IDBS). LRRK2 AlphaScreen Protein Substrate Assay

For assay [2], the target named is T1, 6His-Tev-LRRK2 (1326-2527). The experiment in a line: LRRK2 AlphaScreen desensitised protein substrate assay. It is filed as biochemical. Put shortly: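 Purified 6His-Tev-LRRK2 (1326-2527), 80 nM in enzyme solution, in pH 7.2 Hepes buffer with MgCl2 and DTT; compound 1:4 dilutions, top final 30 μM. ATP 2 mM in substrate solution, 20 min at room temperature. Phospho-ERM (Thr567/564/558) detected by AlphaScreen.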

Where [3] appears, read: read-out: pIC50 in the LRRK2 peptide substrate assay (converted).
The mark [4] stands for this setting: excess of ATP present (2 mM ATP), read-out: pIC50 in the LRRK2 alphascreen desensitised protein substrate assay (converted).

For `Cn1nccc1-c1ccc(OCc2ccc(F)cc2)c(C(=O)Nc2cccnc2)c1` [Example 95, 2-{[(4-Fluorophenyl)methyl]oxy}-5-(1-methyl-1H-pyrazol-5-yl)-N-3-pyridinylbenzamide], the figures for the IC50 in assay [1] (setting [3]) and in assay [2] (setting [4]) were at most 100 nM and at most 20000 nM, respectively.

For the molecule `O=C(Nc1cncc(F)c1)c1cc(Br)ccc1OCc1ccccc1` [Example 98, 5-Bromo-N-(5-fluoro-3-pyridinyl)-2-[(phenylmethyl)oxy]benzamide], the IC50 in assay [1] (setting [3]) is at most 100 nM; in assay [2] (setting [4]), above 25100 nM.

For the molecule `O=C(Nc1cccnc1)c1cc(-c2cn[nH]c2)ccc1OCc1ccccc1` [Example 99, 2-[(Phenylmethyl)oxy]-5-(1H-pyrazol-4-yl)-N-3-pyridinylbenzamide], the IC50 in assay [1] (setting [3]) was at most 10 nM; in assay [2] (setting [4]), at most 20000 nM.

As to `O=C(Nc1cccnc1)c1cc(-c2cccnc2)ccc1OCc1ccccc1` [Example 101, 2-[(Phenylmethyl)oxy]-N,5-di-3-pyridinylbenzamide], the IC50 in assay [1] (setting [3]) was at most 10 nM; in assay [2] (setting [4]), at most 20000 nM.

`O=C(Nc1cncc(F)c1)c1cc(-c2ccncc2)ccc1OCc1ccccc1` [Example 102, N-(5-Fluoro-3-pyridinyl)-2-[(phenylmethyl)oxy]-5-(4-pyridinyl)benzamide]: the values for the IC50 in assay [1] (setting [3]) and in assay [2] (setting [4]) were at most 100 nM and above 25100 nM, respectively.

In the case of `C[C@@H]1CN(c2ccc(OCc3ccccc3)c(C(=O)Nc3cccnc3)c2)C[C@H](C)N1C` [Example 103, 2-[(Phenylmethyl)oxy]-N-3-pyridinyl-5-[(3R,5S)-3,4,5-trimethyl-1-piperazinyl]benzamide], the IC50 in assay [1] (setting [3]) is at most 10 nM; in assay [2] (setting [4]), at most 20000 nM.

Take `O=C(Nc1cccnc1)c1cc(-c2ccnc(F)c2)ccc1OCc1ccccc1` [Example 104, 5-(2-Fluoro-4-pyridinyl)-2-[(phenylmethyl)oxy]-N-3-pyridinylbenzamide]: the results for the IC50 in assay [1] (setting [3]) and in assay [2] (setting [4]) were at most 10 nM and at most 20000 nM, respectively.

Regarding `Cn1cc(-c2ccc(OCc3ccc(F)c(F)c3)c(C(=O)Nc3ccnnc3)c2)cn1` [Example 105, 2-{[(3,4-Difluorophenyl)methyl]oxy}-5-(1-methyl-1H-pyrazol-4-yl)-N-4-pyridazinylbenzamide], the results for the IC50 in assay [1] (setting [3]) and in assay [2] (setting [4]) were at most 100 nM and at most 20000 nM, respectively.

With `O=C(Nc1ccnnc1)c1cc(-c2ccncc2)ccc1OCc1ccc(F)c(F)c1` [Example 106, 2-([(3,4-Difluorophenyl)methyl]oxy)-N-4-pyridazinyl-5-(4-pyridinyl)benzamide], the IC50 was at most 100 nM in assay [1] (setting [3]) and at most 20000 nM in assay [2] (setting [4]).

`O=C(Nc1cccnc1)c1cc(-c2ccn[nH]2)ccc1OCc1ccc(F)c(F)c1` [Example 107, 2-{[(3,4-Difluorophenyl)methyl]oxy}-5-(1H-pyrazol-5-yl)-N-3-pyridinylbenzamide]: the IC50 is at most 10 nM in assay [1] (setting [3]) and at most 20000 nM in assay [2] (setting [4]).

For the molecule `O=C(Nc1ccnnc1)c1cc(-c2cn[nH]c2)ccc1OCc1ccc(F)c(F)c1` [Example 108, 2-{[(3,4-Difluorophenyl)methyl]oxy}-5-(1H-pyrazol-4-yl)-N-4-pyridazinylbenzamide], the figures for the IC50 in assay [1] (setting [3]) and in assay [2] (setting [4]) were at most 100 nM and at most 20000 nM, respectively.

Regarding `O=C(Nc1cccnc1)c1cc(-c2ccncc2)ccc1OCc1ccc(F)c(F)c1` [Example 109, 2-{[(3,4-Difluorophenyl)methyl]oxy}-N-3-pyridinyl-5-(4-pyridinyl)benzamide], the figures for the IC50 in assay [1] (setting [3]) and in assay [2] (setting [4]) were at most 100 nM and at most 20000 nM, respectively.

Regarding `Cn1cc(-c2ccc(OCc3ccc(F)c(F)c3)c(C(=O)Nc3cccnc3)c2)cn1` [Example 110, 2-{[(3,4-Difluorophenyl)methyl]oxy)-5-(1-methyl-1H-pyrazol-4-yl)-N-3-pyridinylbenzamide], the IC50 in assay [1] (setting [3]) is at most 100 nM; in assay [2] (setting [4]) it was at most 20000 nM.

Consider `O=C(Nc1cccnc1)c1cc(CN2CCOCC2)ccc1OCc1ccc(F)c(F)c1` [Example 112, 2-{[(3,4-Difluorophenyl)methyl]oxy}-5-(4-morpholinylmethyl)-N-3-pyridinylbenzamide], for which the IC50 was at most 100 nM in assay [1] (setting [3]) and at most 20000 nM in assay [2] (setting [4]).

Consider `Cn1cc(-c2ccc(OCc3ccccc3C#N)c(C(=O)Nc3cccnc3)c2)cn1` [Example 113, 2-{[(2-Cyanophenyl)methyl]oxy}-5-(1-methyl-1H-pyrazol-4-yl)-N-3-pyridinylbenzamide], for which the IC50 is at most 100 nM in assay [1] (setting [3]) and at most 20000 nM in assay [2] (setting [4]).

`COc1cccc(COc2ccc(-c3cnn(C)c3)cc2C(=O)Nc2cccnc2)c1` [Example 115, 2-({[3-(Methyloxy)phenyl]methyl}oxy)-5-(1-methyl-1H-pyrazol-4-yl)-N-3-pyridinylbenzamide]: the IC50 in assay [1] (setting [3]) was at most 100 nM; in assay [2] (setting [4]) it was at most 20000 nM.

As to `Cn1cc(-c2ccc(OCc3ccc(F)cc3F)c(C(=O)Nc3cccnc3)c2)cn1` [Example 116, 2-{[(2,4-Difluorophenyl)methyl]oxy}-5-(1-methyl-1H-pyrazol-4-yl)-N-3-pyridinylbenzamide], the IC50 in assay [1] (setting [3]) was at most 10 nM; in assay [2] (setting [4]) it was at most 20000 nM.

For the molecule `O=C(Nc1cccnc1)c1cc(CN2CCOCC2)ccc1OCc1ccc(F)cc1` [Example 117, 2-{[(4-Fluorophenyl)methyl]oxy}-5-(4-morpholinylmethyl)-N-3-pyridinylbenzamide], the IC50 is at most 100 nM in assay [1] (setting [3]); 20 nM in assay [1] (mean pIC50, read-out: LRRK2 peptide substrate assay (pIC50) (converted)); at most 20000 nM in assay [2] (setting [4]); 794 nM in assay [2] (mean pIC50, GST-PS-Moesin (400-577) substrate, 2 mM ATP (excess of ATP present), read-out: LRRK2 alphascreen desensitised protein substrate assay (pIC50) (converted)).

For the molecule `COC(=O)NCc1ccc(OCc2ccc(F)cc2)c(C(=O)Nc2cccnc2)c1` [Example 118, Methyl ({4-{[(4-fluorophenyl)methyl]oxy}-3-[(3-pyridinylamino)carbonyl]phenyl}methyl)carbamate], the IC50 in assay [1] (setting [3]) is at most 10 nM; in assay [2] (setting [4]) it was at most 20000 nM.

In the case of `O=C(Nc1ccnnc1)c1cc(CN2CCOCC2)ccc1OCc1ccc(F)cc1` [Example 119, 2-{[(4-Fluorophenyl)methyl]oxy}-5-(4-morpholinylmethyl)-N-4-pyridazinyl benzamide], the IC50 was at most 100 nM in assay [1] (setting [3]) and at most 20000 nM in assay [2] (setting [4]).

Take `Nc1cc(-c2ccc(OCc3ccccc3)c(C(=O)Nc3cccnc3)c2)ccn1` [Example 122, 5-(2-Amino-4-pyridinyl)-2-[(phenylmethyl)oxy]-N-3-pyridinylbenzamide]: the IC50 was at most 100 nM in assay [1] (setting [3]) and at most 20000 nM in assay [2] (setting [4]).

The values above are taken from US8778939B2, “Compounds” (Glaxo Group Limited, priority 2009, dated 2014).
